“And” between values parts separate entries of the source, which are not always exact repeats. Equal values may be shown once. Inconclusive results and toxic doses are left out. Rule for the calls: active = survival T/C of 150% or more; inactive = T/C below 125% in these data.
System: P388 leukemia ip, CD2F1 mice, survival T/C
Assay: NCI In Vivo Anticancer Drug Screen. Data for tumor model P388 Leukemia (intraperitoneal) in CD2F1 (CDF1) mice
Settings: endpoint: median survival time, higher = longer survival
Method in brief: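 Mice carrying the transplanted tumor received test compound or vehicle. Survival was recorded in each group, and the value is the treated-group measurement divided by that of the vehicle-treated control group.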

[1] = dose: 60.0 mg/kg/injection, schedule: Q01DX005 (ip), vehicle: saline with Tween-80
[2] = dose: 120.0 mg/kg/injection, schedule: Q01DX005 (ip), vehicle: saline with Tween-80
[3] = dose: 240.0 mg/kg/injection, schedule: Q01DX005 (ip), vehicle: saline with Tween-80
[4] = dose: 50.0 mg/kg/injection, schedule: Q01DX005 (ip), vehicle: saline with Tween-80
[5] = dose: 100.0 mg/kg/injection, schedule: Q01DX005 (ip), vehicle: saline with Tween-80
[6] = dose: 200.0 mg/kg/injection, schedule: Q01DX005 (ip), vehicle: saline with Tween-80
[7] = dose: 12.5 mg/kg/injection, schedule: Q01DX009 (ip), vehicle: saline with Tween-80
[8] = dose: 25.0 mg/kg/injection, schedule: Q01DX009 (ip), vehicle: saline with Tween-80
[9] = dose: 50.0 mg/kg/injection, schedule: Q01DX009 (ip), vehicle: saline with Tween-80
[10] = dose: 100.0 mg/kg/injection, schedule: Q01DX009 (ip), vehicle: saline with Tween-80
[11] = dose: 200.0 mg/kg/injection, schedule: Q01DX009 (ip), vehicle: saline with Tween-80

Measured: T/C

CC1OC2=C(C(=O)c3ccccc3C2=O)C(O)C1O (centres undefined)
inactive: dose: 25.0 mg/kg/injection, schedule: Q01DX001 (ip), vehicle: Klucel (hydroxypropylcellulose) (HPC) 96 % of control | dose: 50.0 mg/kg/injection, schedule: Q01DX001 (ip), vehicle: Klucel (hydroxypropylcellulose) (HPC) 96 % of control

CCOC(=O)c1c(N)[nH]c(SSc2[nH]c(N)c(C(=O)OCC)c2C(=O)OCC)c1C(=O)OCC
inactive: dose: 75.0 mg/kg/injection, schedule: Q01DX009 (ip), vehicle: saline 118 % of control | dose: 300.0 mg/kg/injection, schedule: Q01DX009 (ip), vehicle: saline 100 % of control

CCCC1CCCCN1C (centres undefined)
inactive: dose: 3.12 mg/kg/injection, schedule: Q01DX005 (ip), vehicle: saline with Tween-80 105 % of control | dose: 6.25 mg/kg/injection, schedule: Q01DX005 (ip), vehicle: saline with Tween-80 105 % of control | dose: 12.5 mg/kg/injection, schedule: Q01DX005 (ip), vehicle: saline with Tween-80 108 % of control | dose: 25.0 mg/kg/injection, schedule: Q01DX005 (ip), vehicle: saline with Tween-80 105 % of control

CC(C)N1C(=O)NC2C1NC(=O)N2C(C)C (centres undefined) (tested in a mixture with another compound)
inactive: [1] 106 % of control | [2] 105 % of control | [3] 105 % of control

CC1(C)COC2(c3ccccc3)N(c3ccccc3)C(=O)ON12 (centres undefined)
inactive: dose: 60.0 mg/kg/injection, schedule: Q01DX001 (ip), vehicle: Klucel (hydroxypropylcellulose) (HPC) 100 % of control | dose: 120.0 mg/kg/injection, schedule: Q01DX001 (ip), vehicle: Klucel (hydroxypropylcellulose) (HPC) 100 % of control | dose: 240.0 mg/kg/injection, schedule: Q01DX001 (ip), vehicle: Klucel (hydroxypropylcellulose) (HPC) 103 % of control

Cn1cc2c(cc1=O)-c1nc3ccccc3c3ccnc(c13)C2=O
inactive: dose: 1.25 mg/kg/injection, schedule: Q01DX005 (ip), vehicle: other 96 % of control | dose: 2.5 mg/kg/injection, schedule: Q01DX005 (ip), vehicle: other 97 % of control | dose: 5.0 mg/kg/injection, schedule: Q01DX005 (ip), vehicle: other 92 % of control | dose: 10.0 mg/kg/injection, schedule: Q01DX005 (ip), vehicle: other 90 % of control

CCOC(=O)C1=CNc2c(C#N)cnn2C12C(=O)Oc1ccc(OC)cc12 (centres undefined)
inactive: dose: 25.0 mg/kg/injection, schedule: Q01DX005 (ip), vehicle: Klucel (hydroxypropylcellulose) (HPC) 109 % of control | dose: 50.0 mg/kg/injection, schedule: Q01DX005 (ip), vehicle: Klucel (hydroxypropylcellulose) (HPC) 105 % of control | dose: 100.0 mg/kg/injection, schedule: Q01DX005 (ip), vehicle: Klucel (hydroxypropylcellulose) (HPC) 105 % of control | dose: 200.0 mg/kg/injection, schedule: Q01DX005 (ip), vehicle: Klucel (hydroxypropylcellulose) (HPC) 105 % of control

CCOC1Oc2ccccc2-c2nc(C)c(C#N)cc21 (centres undefined)
inactive: [1] 90 % of control | [2] 88 % of control | [3] 90 % of control

COc1cccc2c1C(=O)c1c(O)c3c(c(O)c1C2=O)CC(O)(C(=O)COc1ccccc1)CC3O (centres undefined)
inactive: dose: 1.56 mg/kg/injection, schedule: Q01DX009 (ip), vehicle: other 108 % of control | dose: 3.13 mg/kg/injection, schedule: Q01DX009 (ip), vehicle: other 106 % of control | dose: 6.25 mg/kg/injection, schedule: Q01DX009 (ip), vehicle: other 105 % of control | dose: 12.5 mg/kg/injection, schedule: Q01DX009 (ip), vehicle: other 97 % of control | dose: 25.0 mg/kg/injection, schedule: Q01DX009 (ip), vehicle: other 91 % of control

CN1C=c2c3c(ccc2=C2C=CC4C=C5OCOC5=CC4=C21)OCO3 (centres undefined)
inactive: dose: 4.0 mg/kg/injection, schedule: Q01DX009 (ip), vehicle: saline with Tween-80 113 % of control | dose: 8.0 mg/kg/injection, schedule: Q01DX009 (ip), vehicle: saline with Tween-80 107 % of control | dose: 16.0 mg/kg/injection, schedule: Q01DX009 (ip), vehicle: saline with Tween-80 110 % of control

CC(=O)NC1CCCCC1C1CCC(N)CC1 (centres undefined)
inactive: [4] 99 % of control | [5] 102 % of control | [6] 87 % of control

CNC(=O)Nc1[nH]c(=O)ncc1I
inactive: dose: 30.0 mg/kg/injection, schedule: Q01DX005 (ip), vehicle: Klucel (hydroxypropylcellulose) (HPC) 100 % of control | dose: 60.0 mg/kg/injection, schedule: Q01DX005 (ip), vehicle: Klucel (hydroxypropylcellulose) (HPC) 96 % of control | dose: 120.0 mg/kg/injection, schedule: Q01DX005 (ip), vehicle: Klucel (hydroxypropylcellulose) (HPC) 117 % of control

CC(C)c1ccccc1S(=O)c1ccccc1C(C)(C)O (centres undefined)
inactive: dose: 50.0 mg/kg/injection, schedule: Q01DX009 (ip), vehicle: Klucel (hydroxypropylcellulose) (HPC) 98 % of control | dose: 100.0 mg/kg/injection, schedule: Q01DX009 (ip), vehicle: Klucel (hydroxypropylcellulose) (HPC) 102 % of control | dose: 200.0 mg/kg/injection, schedule: Q01DX009 (ip), vehicle: Klucel (hydroxypropylcellulose) (HPC) 95 % of control

CCOC(=O)CC(=N)C(C#N)C(=O)OCC (centres undefined)
inactive: dose: 6.25 mg/kg/injection, schedule: Q01DX009 (ip), vehicle: saline with Tween-80 101 % of control | [7] 101 % of control | [8] 99 % of control | [9] 99 % of control

CC1(C)C=Cc2c(ccc(C(=O)Cc3ccccc3)c2O)O1
inactive: [4] 99 % of control | [5] 96 % of control | [6] 93 % of control

Cc1ccc([SeH])cc1.[Sn]
inactive: [8] 92 % of control | [9] 94 % of control | [10] 86 % of control

CCOC(=O)c1ccc(NC(CCC(C#N)(CCC(=NC(C)(C)C)Nc2ccc(C(=O)OCC)cc2)C(=O)OCC)=NC(C)(C)C)cc1 (centres undefined)
inactive: [9] 95 % of control | [10] 95 % of control | [11] 95 % of control

c1cc2ccc1CCc1ccc(cc1)CC2
inactive: dose: 100.0 mg/kg/injection, schedule: Q01DX001 (ip), vehicle: saline sonified 90 % of control | dose: 200.0 mg/kg/injection, schedule: Q01DX001 (ip), vehicle: saline sonified 100 % of control | dose: 400.0 mg/kg/injection, schedule: Q01DX001 (ip), vehicle: saline sonified 100 % of control

CCC1C(c2c[nH]c3ccccc23)N(C=O)CCC1(O)C(C)=O (centres undefined)
inactive: dose: 4.38 mg/kg/injection, schedule: Q01DX005 (ip), vehicle: Klucel (hydroxypropylcellulose) (HPC) 99 % of control | dose: 8.75 mg/kg/injection, schedule: Q01DX005 (ip), vehicle: Klucel (hydroxypropylcellulose) (HPC) 99 % of control | dose: 17.5 mg/kg/injection, schedule: Q01DX005 (ip), vehicle: Klucel (hydroxypropylcellulose) (HPC) 96 % of control

c1ccc2sc(NC(Nc3nc4ccccc4s3)C34CC5CC(CC(C5)C3)C4)nc2c1
inactive: [7] 98 % of control | [8] 98 % of control | [9] 91 % of control and 96 % of control

O=[N+]([O-])c1cnc(Sc2cncc[n+]2[O-])s1
inactive: dose: 1.56 mg/kg/injection, schedule: Q01DX009 (ip), vehicle: Klucel (hydroxypropylcellulose) (HPC) 100 % of control | dose: 3.12 mg/kg/injection, schedule: Q01DX009 (ip), vehicle: Klucel (hydroxypropylcellulose) (HPC) 93 % of control | dose: 6.25 mg/kg/injection, schedule: Q01DX009 (ip), vehicle: Klucel (hydroxypropylcellulose) (HPC) 102 % of control and 90 % of control

CCOC(=O)C(CNc1ccc(OCc2ccccc2)cc1)NC(=O)c1ccccc1 (centres undefined)
inactive: [9] 105 % of control | dose: 50.0 mg/kg/injection, schedule: Q01DX009 (ip), vehicle: saline 96 % of control | [10] 100 % of control | dose: 100.0 mg/kg/injection, schedule: Q01DX009 (ip), vehicle: saline 88 % of control | [11] 87 % of control | dose: 200.0 mg/kg/injection, schedule: Q01DX009 (ip), vehicle: saline 88 % of control | dose: 400.0 mg/kg/injection, schedule: Q01DX009 (ip), vehicle: saline with Tween-80 91 % of control

From PubChem BioAssay AID330 (DTP/NCI, 2004)
